Experimental data reported in PubChem BioAssay (NCI).
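Assay format: 96-well plates, 48-hour exposure. TGI: total growth inhibition.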

Assays:
Test in all cases: NCI anticancer screen, dose series, 48 h
[1] = tested on: HL-60(TB) leukemia
[2] = tested on: COLO 205 colon
[3] = tested on: EKVX NSCLC
[4] = tested on: MCF7 breast
[5] = tested on: DU-145 prostate
[6] = tested on: OVCAR-3 ovarian
[7] = tested on: NCI-H460 lung
[8] = tested on: SF-295 CNS
[9] = tested on: SNB-75 CNS
[10] = tested on: MOLT-4 leukemia
[11] = tested on: CAKI-1 renal
[12] = tested on: BT-549 breast
[13] = tested on: HT29 colon
[14] = tested on: SF-268 CNS
[15] = tested on: SK-MEL-5 melanoma
[16] = tested on: T-47D breast
[17] = tested on: A549 NSCLC
[18] = tested on: NCI/ADR-RES ovarian
[19] = tested on: HCT-116 colon
[20] = tested on: UACC-62 melanoma
[21] = tested on: OVCAR-8 ovarian
[22] = tested on: HOP-62 NSCLC
[23] = tested on: UO-31 renal
[24] = tested on: MDA-MB-231 breast
[25] = tested on: IGROV1 ovarian
[26] = tested on: PC-3 prostate
[27] = tested on: CCRF-CEM leukemia
[28] = tested on: KM12 colon
[29] = tested on: SR leukemia
[30] = tested on: UACC-257 melanoma
[31] = tested on: SN12C renal
[32] = tested on: SF-539 CNS
[33] = tested on: RXF 393 renal
[34] = tested on: K-562 leukemia
[35] = tested on: SK-MEL-2 melanoma
[36] = tested on: NCI-H226 lung
[37] = tested on: HCT-15 colon
[38] = tested on: TK-10 renal
[39] = tested on: RPMI-8226 leukemia
[40] = tested on: SNB-19 CNS
[41] = tested on: 786-0 renal
[42] = tested on: ACHN renal
[43] = tested on: M14 melanoma
[44] = tested on: MDA-N
[45] = tested on: A498 renal
[46] = tested on: OVCAR-5 ovarian
[47] = tested on: NCI-H23 lung
[48] = tested on: HS 578T breast
[49] = tested on: SK-OV-3 ovarian
[50] = tested on: SW-620 colon
[51] = tested on: OVCAR-4 ovarian
[52] = tested on: HOP-92 NSCLC
[53] = tested on: NCI-H522 lung
[54] = tested on: MDA-MB-435
[55] = tested on: SK-MEL-28 melanoma
[56] = tested on: HCC-2998 colon
[57] = tested on: U251 CNS

Measured: TGI

CCOC(=O)c1c(NC(=O)c2ccccc2)sc2c1CCC2
not listed: [49] | [50] | [51] | [52] | [53] | [54] | [55] | [56] | [57]
> 100 µM: all other assays above

C=C(Br)C(Cl)(CBr)CCC(Br)C(C)(C)Cl (stereo unspecified)
not listed: [7] | [30] | [37] | [48]
> 10 µM: all other assays above
